Results published in US5294633A, “Imidazolyl-propenoic acid derivatives” (Bayer Aktiengesellschaft, priority 1991, dated 1994).
≈ marks a conversion by molar mass, not a printed value.

Tested on: isolated rabbit aorta (contractions induced by angiotensin II)
Assay: Inhibition of the contraction induced with angiotensin II in isolated rabbit aorta rings
Settings: Oryctolagus cuniculus; isolated aorta rings of rabbits in vitro; effect at 3rd = submaximal agonist concentration; read-out: IC50 (g/ml) with respect to contractions induced by AII
Protocol: Rabbits of both sexes are anaesthetized by a blow to the neck and bled out, or alternatively anaesthetized with Nembutal (about 60-80 mg/kg i.v.) and sacrificed by opening the thorax. The thorax aorta is taken out, freed from adhering connective tissue, divided into 1. 5 Mm wide ring segments and these are individually transferred under an initial loading of about 3.5 g to 10 ml organ baths containing 95% O2 /5% CO2 -aerated Krebs-Henseleit nutrient solution thermostated at 37° C. and of the following composition: 119 mmol/l NaCl; 2.5 mmol/l CaCl2 ×2H2 O; 1.2 mmol/l KH2 PO4; 10 mmol/l glucose; 4.8 mmol/l KCl; 1.4 mmol/l MgSO4 ×7 H2 O and 25 mmol/l NaHCO3.
The contractions are detected isometrically by Statham UC2 cells by means of a bridge amplifier (ifd Mulheim or DSM Aalen) and digitized and evaluated by means of an A/D converter (System 570, Keithley, Munich). The agonist dose-response curves (DRC) are carried out hourly. With each DRC, 3 or 4 individual concentrations are applied to the baths at 4 min intervals. […]
The height of, in the normal case, the 3rd DRC is used as a reference quantity for the assessment of the test substance to be investigated in further passages, which test substance is applied to the baths in increasing dose in each case at the start of the incubation time in the following DRCs. […]

CCCCc1nc(Cl)c(/C=C/C(=O)OCC)n1Cc1ccc(-c2ccccc2-c2nnn[nH]2)cc1 [Example 1, Ethyl (E)-3-[2-n-butyl-4-chloro-1-{(2'-(tetrazol-5-yl)biphenyl-4-yl)methyl}-1H-imidazol-5-yl]-2-propenoate]
IC50: 0.025 µg/mL (≈ 0.0509 µM)

CCCCc1nc(Cl)c(/C=C/C(=O)O)n1Cc1ccc(-c2ccccc2-c2nnn[nH]2)cc1 [Example 2, (E)-3-[2-n-Butyl-4-chloro-1-{(2'-(tetrazol-5-yl)biphenyl-4-yl)methyl}-1H-imidazol-5-yl]-2-propenoic acid]
IC50: 0.021 µg/mL (≈ 0.0454 µM)
